Source: patent US4582821A, “Inhibition of cyclic nucleotide independent protein kinases” (E. I. Du Pont de Nemours and Company, priority 1983, dated 1986)

What was measured:
[1] = system: A-431 plasma membrane extracts (EGF-mediated protein phosphorylation); experiment: Protein phosphorylation in solubilized A-431 plasma membrane extracts, with or without EGF; type: biochemical, human
Procedure, shortened: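 Triton X-100-solubilized A-431 plasma membranes (15-150 μg protein) in 20 mM Hepes pH 7.4 with 1 mM MnCl2, ± 100 ng EGF, preincubated with compound 10 min at ~23°, then 10 min at 0°. Phosphorylation started with 15 μM [γ-32P]ATP, stopped after 3 min at 0°; TCA-precipitated radioactivity counted.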

[2] = system: EGF-mediated tyrosine phosphorylation in Triton extracts of A-431 cell membranes; experiment: Phosphoamino acid analysis of labeled Triton extracts of A-431 cell membranes; type: biochemical, human; details: for Total Phosphoprotein / P-serine radioactivity / P-threonine radioactivity / P-tyrosine radioactivity: 349 nmoles/mg protein; for Total Phosphoprotein: 1/7 aliquot
Protocol: Triton extracts of A-431 cell membranes, prepared substantially as described previously, containing 37.5 μg protein, were labeled with [γ-^32 P] ATP (5 μM, 5 μCi) for 3 minutes at 0° in the presence and absence of Boc-LeuCH2 Br (349 nmoles/mg protein). Protein samples were hydrolyzed and phosphoamino acids were separated by the following procedure.
After labeling, membrane proteins were treated with 10% trichloroacetic acid (TCA) containing 10 mM sodium pyrophosphate and 100 μg BSA. After incubation for one hour at 0°, the foregoing mixture was centrifuged at 3,000 rpm and the resulting pellet washed 3 times with 10% TCA/10 mM sodium pyrophosphate. After recentrifugation, the final pellet was washed with ethanol, dried under vacuum, and dissolved in 70 μL of 0.1N NaOH prior to transfer to glass test tubes containing 0.5 mL 6N hydrochloric acid. The tubes were sealed under vacuum and samples were hydrolyzed at 100° for one hour. The resulting hydrolysates were lyophilized, resuspended in 30 μL water and electrophoresed on Whatman 3MM paper for 3 hours at 3,000 V, at pH 3.5 in 5% acetic acid/0.5% pyridine. Phosphotyrosine, phosphoserine, and phosphothreonine (10 μg of each) were employed as markers. Following electrophoresis, spots corresponding to the foregoing phosphoamino acids were located by ninhydrin treatment, excised, and bleached with 6% hydrogen peroxide. Radioactivity of the spots was determined by scintillation counting and expressed as cpm. Total phosphoprotein of a 1/7 aliquot of each reaction mixture was determined as previously described.

p130^fps = target: T1, p130^fps (UniProt P00530+P03323); experiment: Casein phosphorylation by p130fps immunoprecipitates; type: biochemical, Fujinami sarcoma virus (FSV); details: for Casein Phosphorylation: 1 mg/mL casein
T1 construct: anti-gag serum and Staphylococcus protein A suspension (for FSV-transformed cells); viral gag-derived N-terminal portion (natural gag-fps fusion); expressed in transfected cells; immune complex with anti-gag serum and Staphylococcus protein A
Protocol: In a related experiment, the capacity of Boc-LeuCH2 Br to inhibit phosphorylation of casein by p130^fps was determined. These tests were conducted substantially as described above, except 1 mg/mL casein was added to assay mixtures as a substrate, and reactions were terminated by addition of 2.5 mM unlabeled ATP and immediate cooling to 0°. Phosphorylated casein was separated from immunoprecipitate suspensions by centrifugation at 3,000 xg for 3 minutes. The resulting pellets were resuspended in 70 μL of 10 mM Hepes, pH 7.5, and 20 μL aliquots were pipetted onto filter paper squares as previously described. […]

A-431 cell EGF receptor = target: T2, A-431 cell EGF receptor (Homo sapiens, UniProt P00533); experiment: Protein phosphorylation of A-431 cell membrane EGF receptors (intact membranes, EGF present); type: biochemical; details: 600 nmoles/mg protein, intact A-431 membranes
T2 construct: intact A-431 cell membranes were employed, rather than solubilized extracts; endogenous in cells; host or cells: A-431 human epidermoid carcinoma cells (plasma membranes)
T2 sequence (P00533 25-1210): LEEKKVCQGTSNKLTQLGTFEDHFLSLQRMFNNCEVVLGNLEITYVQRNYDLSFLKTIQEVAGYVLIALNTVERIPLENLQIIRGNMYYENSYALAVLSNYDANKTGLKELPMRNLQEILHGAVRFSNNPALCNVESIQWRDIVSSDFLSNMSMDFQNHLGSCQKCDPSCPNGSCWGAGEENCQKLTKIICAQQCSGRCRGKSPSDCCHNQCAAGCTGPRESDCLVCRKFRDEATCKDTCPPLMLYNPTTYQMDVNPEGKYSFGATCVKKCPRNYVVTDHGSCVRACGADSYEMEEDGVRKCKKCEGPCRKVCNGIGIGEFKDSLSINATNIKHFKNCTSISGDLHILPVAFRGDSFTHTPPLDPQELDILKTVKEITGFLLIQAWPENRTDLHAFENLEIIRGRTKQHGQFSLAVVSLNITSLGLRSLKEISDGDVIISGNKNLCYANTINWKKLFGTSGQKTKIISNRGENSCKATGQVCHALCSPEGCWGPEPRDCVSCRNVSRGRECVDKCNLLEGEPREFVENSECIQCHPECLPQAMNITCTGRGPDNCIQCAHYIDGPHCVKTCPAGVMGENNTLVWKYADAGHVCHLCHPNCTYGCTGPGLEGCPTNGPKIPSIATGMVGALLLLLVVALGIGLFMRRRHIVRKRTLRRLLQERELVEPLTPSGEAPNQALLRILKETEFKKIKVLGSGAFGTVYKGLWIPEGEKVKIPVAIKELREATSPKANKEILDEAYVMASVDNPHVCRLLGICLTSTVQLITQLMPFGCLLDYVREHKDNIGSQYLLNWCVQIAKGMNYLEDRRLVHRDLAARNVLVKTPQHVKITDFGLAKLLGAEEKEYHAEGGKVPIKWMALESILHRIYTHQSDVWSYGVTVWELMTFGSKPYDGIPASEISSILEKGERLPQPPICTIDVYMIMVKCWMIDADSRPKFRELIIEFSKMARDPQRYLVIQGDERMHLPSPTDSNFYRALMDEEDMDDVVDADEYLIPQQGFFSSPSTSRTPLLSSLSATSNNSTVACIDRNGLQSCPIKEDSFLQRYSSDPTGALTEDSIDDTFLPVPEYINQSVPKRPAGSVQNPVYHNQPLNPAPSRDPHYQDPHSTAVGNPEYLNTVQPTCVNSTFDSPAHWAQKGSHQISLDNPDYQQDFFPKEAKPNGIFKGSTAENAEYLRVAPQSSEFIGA
Procedure, shortened: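 Intact A-431 membranes with 1 mM ouabain, 20 mM Hepes pH 7.4, 1 mM MnCl2 and 100 ng EGF, preincubated with peptide halomethyl ketones (ethanol vehicle) ~23° for 10 min, then 10 min at 0°. Phosphorylation started with 15 μM [γ-32P]ATP, run 6 min at 0°; TCA-precipitated radioactivity counted by scintillation.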

CC(C)CC(NC(=O)OC(C)(C)C)C(=O)CBr (stereo not drawn) [Boc-LeuCH2 Br]
% inhibition, EGF Added ([1]; 400 nmol/mg protein): 65%
EGF Added (pmol 32P incorporated/min/mg protein) ([1]; 400 nmol/mg protein, control 20.2): 7.0 pmol^32 P incorporated/min/mg
% inhibition, EGF Added ([1]; 477 nmol/mg protein): 72%
EGF Added (pmol 32P incorporated/min/mg protein) ([1]; 477 nmol/mg protein, control 96.2): 27.4 pmol^32 P incorporated/min/mg
% inhibition, No EGF Added ([1]; 400 nmol/mg protein): 69%
No EGF Added (pmol 32P incorporated/min/mg protein) ([1]; 400 nmol/mg protein, control 7.3): 2.3 pmol^32 P incorporated/min/mg
% inhibition, No EGF Added ([1]; 477 nmol/mg protein): 74%
No EGF Added (pmol 32P incorporated/min/mg protein) ([1]; 477 nmol/mg protein, control 21.6): 5.6 pmol^32 P incorporated/min/mg
Total Phosphoprotein ([2]; EGF absent, control 3408): 2024 cpm
P-serine radioactivity ([2]; EGF absent, control 328): 300 cpm
P-threonine radioactivity ([2]; EGF absent, control 1100): 1180 cpm
P-tyrosine radioactivity ([2]; EGF absent, control 1152): 488 cpm
Total Phosphoprotein ([2]; EGF present, control 12204): 5332 cpm
P-serine radioactivity ([2]; EGF present, control 494): 262 cpm
P-threonine radioactivity ([2]; EGF present, control 1994): 1270 cpm
P-tyrosine radioactivity ([2]; EGF present, control 18000): 5554 cpm
inhibition of tyrosine phosphorylation (in words) ([2]; both the presence and absence of EGF): pronounced inhibition of tyrosine phosphorylation
Casein Phosphorylation (p130^fps; p130fps + anti-gag serum, no inhibitor 4442): 618 cpm
Casein Phosphorylation (p130^fps; p130fps + control serum, no inhibitor 326): 226 cpm
Percent Inhibition (p130^fps; casein-phosphorylating activity of p130fps, concentration not given): 63%
% inhibition (A-431 cell EGF receptor): 29%
